As usually defined, the IC50 is the concentration that gives 50% inhibition.

We go through 16 compounds from patent publication US7553969B1, “Substituted phenethylamine derivatives” (Chugai Seiyaku Kabushiki Kaisha, priority 1999, dated 2009).

Where a SMILES comes first, the peptide text is derived from it. [ ]: non-standard residue; d: D form. The star is where a group is joined. ξ: configuration not given here. NMeTyr(3-tBu) = CN[C@@H](Cc1ccc(O)c(C(C)(C)C)c1)C(=O)O; ξNMeTyr(3-tBu) = CNC(Cc1ccc(O)c(C(C)(C)C)c1)C(=O)O; Tyr(3-tBu) = CC(C)(C)c1cc(C[C@H](N)C(=O)O)ccc1O; NMePhe(4-F) = CN[C@@H](Cc1ccc(F)cc1)C(=O)O; Phe(4-F) = N[C@@H](Cc1ccc(F)cc1)C(=O)O; ξPhe(4-CN) = N#Cc1ccc(CC(N)C(=O)O)cc1; NMeV = CN[C@H](C(=O)O)C(C)C; NHtBu = CC(C)(C)N*

In one assay the target is T1, motilin receptor (Oryctolagus cuniculus, UniProt G1T803).
T1 construct: homogenized in 50 mM Tris buffer to prepare a protein sample; from tissue; host or cells: rabbit duodenum homogenate (mucous membrane separated)
The assay is described as follows: Motilin receptor binding test (125I motilin, rabbit duodenum protein sample). Particulars: 125I motilin 25 pM, concentration reducing specific binding by 50%. The gist of the method: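 Radioligand binding of 25 pM 125I-motilin to rabbit duodenal mucosa homogenate in 50 mM Tris. Specific binding was defined by excess unlabelled motilin (10^−7 M). IC50 (nM) is the concentration cutting specific binding by 50%.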

In assay [1] the test system is specimen of longitudinal muscle in the duodenum extracted from a rabbit (motilin-induced contraction). The assay is described as follows: Action on the motilin-induced contraction of a specimen of longitudinal muscle in the duodenum extracted from a rabbit. Particulars: Oryctolagus cuniculus, organ bath, Krebs solution 28° C., read-out: Contraction suppressing test, pA2 (converted). The gist of the method:
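Rabbit duodenal longitudinal strip in Krebs solution at 28° C, gassed 95% O2/5% CO2, contraction recorded isotonically under 1-g load. Contraction expressed relative to 10^−4 M acetylcholine as 100%. Activity given as pA2 against dose-dependent motilin-induced contraction.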

T1 sequence (G1T803 1-400): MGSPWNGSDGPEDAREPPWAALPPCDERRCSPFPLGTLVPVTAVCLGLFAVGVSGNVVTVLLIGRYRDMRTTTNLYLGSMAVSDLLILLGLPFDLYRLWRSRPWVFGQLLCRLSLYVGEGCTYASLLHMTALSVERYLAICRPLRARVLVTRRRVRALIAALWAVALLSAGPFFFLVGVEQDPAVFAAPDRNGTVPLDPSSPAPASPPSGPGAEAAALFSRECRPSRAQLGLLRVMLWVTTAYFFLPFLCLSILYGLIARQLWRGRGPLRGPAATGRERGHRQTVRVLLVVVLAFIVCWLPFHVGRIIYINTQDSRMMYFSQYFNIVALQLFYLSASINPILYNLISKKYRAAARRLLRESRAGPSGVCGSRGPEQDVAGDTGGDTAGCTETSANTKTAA

`CCOC(=O)CN1CCN(C(=O)[C@H](Cc2ccc(O)c(C(C)(C)C)c2)N(C)C(=O)[C@H](C(C)C)N(C)C(=O)[C@@H](N)Cc2ccc(F)cc2)CC1` [Example 135, ethyl 2-[4-((2S)-2-{(2S)-2-[(2S)-2-amino-3-(4-fluorophenyl)-N-methylpropanolyamino]-3,N-dimethylbutanoylamino}-3-[3-(tert-butyl)-4-hydroxyphenyl]propanoyl)piperazinyl]acetate] gave a half-maximal inhibitory concentration (IC50) at motilin receptor of 0.7 nM. In assay [1], the Kb was 3.16 nM.
At motilin receptor, `CCN(C(=O)[C@H](C(C)C)N(C)C(=O)[C@H](Cc1ccc(F)cc1)NC)[C@@H](Cc1ccc(O)c(C(C)(C)C)c1)C(=O)NCO` [Example 128, N-Me-Phe(4-F)-N-Me-Val-N-Et-Tyr(3-tBu)-NHCH2OH] had a half-inhibitory concentration (IC50) of 1.5 nM. The Kb in assay [1] is 2 nM.
Compound `CC(C)[C@@H](C(=O)N[C@@H](Cc1ccc(O)c(C(C)(C)C)c1)c1nnco1)N(C)C(=O)[C@@H](N)Cc1ccc(F)cc1` [Example 21, 2-((2-amino-3-(4-fluorophenyl)propionyl)-N-methylamino)-3-methylbutyric acid 2-(3-t-butyl-4-hydroxyphenyl)-1-(1,3,4-oxadiazol-2-yl)ethylamide] had an IC50 on motilin receptor of 0.27 nM. Besides, the Kb in assay [1] was 0.158 nM.
The compound `CC(C)[C@@H](C(=O)N(C)C(Cc1ccc(O)c(C(C)(C)C)c1)C(N)=O)N(C)C(=O)C(N)Cc1ccc(C#N)cc1` (some centres unmarked) [Example 182, Phe(4-CN)-N-Me-Val-N-Me-Tyr(3-tBu)-NH2] (H-[ξPhe(4-CN)]-[NMeV]-[ξNMeTyr(3-tBu)]-NH2) had an IC50 on motilin receptor of 2.3 nM. Further, the Kb in assay [1] is 3.16 nM.
Take `CN[C@@H](Cc1ccc(F)cc1)C(=O)N(C)[C@H](C(=O)N[C@@H](Cc1ccc(O)c(C(C)(C)C)c1)C(=O)NCO)C(C)C` [Example 123, N-Me-Phe(4-F)-N-Me-Val-Tyr(3-tBu)-NHCH2OH]: the concentration for half-maximal inhibition (IC50) on motilin receptor came out at 0.7 nM. Also, the Kb in assay [1] is 0.794 nM.
Take `CCN[C@@H](Cc1ccc(F)cc1)C(=O)N(C)[C@H](C(=O)N[C@@H](Cc1ccc(O)c(C(C)(C)C)c1)C(N)=O)C(C)C` [Example 30, N-Et-Phe(4-F)-N-Me-Val-Tyr(3-tBu)-NH2]: the IC50 at motilin receptor turned out to be 0.81 nM. Also, the Kb in assay [1] was 0.794 nM.
The matching figures for `CC(C)[C@@H](C(=O)N(C)[C@@H](Cc1ccc(O)c(C(C)(C)C)c1)C(=O)N1CCN(S(C)(=O)=O)CC1)N(C)C(=O)[C@@H](N)Cc1ccc(F)cc1` [Example 134, (2S)-2-[(2S)-2-amino-3-(4-fluorophenyl)-N-methylpropanolyamino]-N-((1S)-1-{[3-(tert-butyl)-4-hydroxyphenyl]methyl}-2-[4-(methylsulfonyl)piperazinyl]-2-oxoethyl)-3-methyl-N-methylbutanamide]: 1.5 nM and 5.01 nM.
The matching figures for `CC(C)[C@@H](C(=O)N[C@H](CNS(C)(=O)=O)Cc1ccc(O)c(C(C)(C)C)c1)N(C)C(=O)[C@@H](N)Cc1ccc(F)cc1` [Example 14, N-[2-(3-tert-butyl-4-hydroxyphenyl)-1-(methanesulfonylaminomethyl)ethyl]-2-[N-(4-fluorophenylalaminoyl)methylamino]-3-methylbutanamide]: 0.7 nM and 0.501 nM.
Turning to `CNC(=O)[C@H](Cc1ccc(O)c(C(C)(C)C)c1)N(C)C(=O)[C@H](C(C)C)N(C)C(=O)[C@H](Cc1ccc(F)cc1)NC` [Example 37, N-Me-Phe(4-F)-N-Me-Val-N-Me-Tyr(3-tBu)-NHMe] (H-[NMePhe(4-F)]-[NMeV]-[NMeTyr(3-tBu)]-NHMe), the IC50 at motilin receptor worked out at 0.6 nM. Also, the Kb in assay [1] was 1.58 nM.
The compound `CCN[C@@H](Cc1ccc(F)cc1)C(=O)N(C)[C@H](C(=O)N(CC)[C@@H](Cc1ccc(O)c(C(C)(C)C)c1)C(N)=O)C(C)C` [Example 41, N-Et-Phe(4-F)-N-Me-Val-N-Et-Tyr(3-tBu)-NH2] gave an IC50 at motilin receptor of 3.1 nM. Besides, the Kb in assay [1] is 3.98 nM.
For `CC(C)[C@@H](C(=O)N[C@@H](Cc1ccc(O)c(C(C)(C)C)c1)C(=O)NC(C)(C)C)N(C)C(=O)[C@@H](N)Cc1ccc(F)cc1` [Example 63, Phe(4-F)-N-Me-Val-Tyr(3-tBu)-NHtBu] (H-[Phe(4-F)]-[NMeV]-[Tyr(3-tBu)]-NHtBu), at motilin receptor, the half-maximal inhibitory concentration (IC50) amounted to 0.62 nM. Besides, the Kb in assay [1] was 3.98 nM.
`CN[C@@H](Cc1ccc(F)cc1)C(=O)N(C)[C@H](C(=O)N[C@@H](Cc1ccc(O)c(C(C)(C)C)c1)C(N)=O)C(C)C` [Example 29, N-Me-Phe(4-F)-N-Me-Val-Tyr(3-tBu)-NH2] (H-[NMePhe(4-F)]-[NMeV]-[Tyr(3-tBu)]-NH2): the IC50 on motilin receptor amounted to 0.45 nM. In addition, the Kb in assay [1] is 2 nM.
On to `CNC(=O)[C@H](Cc1ccc(O)c(C(C)(C)C)c1)NC(=O)[C@H](C(C)C)N(C)C(=O)[C@@H](N)Cc1ccc(F)cc1` [Example 31, Phe(4-F)-N-Me-Val-Tyr(3-tBu)-NHMe] (H-[Phe(4-F)]-[NMeV]-[Tyr(3-tBu)]-NHMe), for which the concentration for half-maximal inhibition (IC50) on motilin receptor turned out to be 0.79 nM. For the same compound, the Kb in assay [1] was 0.316 nM.
Turning to `CCN(C(=O)[C@H](C(C)C)N(C)C(=O)[C@H](Cc1ccc(F)cc1)NC)[C@@H](Cc1ccc(O)c(C(C)(C)C)c1)C(=O)NC` [Example 43, N-Me-Phe(4-F)-N-Me-Val-N-Et-Tyr(3-tBu)-NHMe], the concentration for half-maximal inhibition (IC50) at motilin receptor was 1.9 nM. The Kb in assay [1] is 3.16 nM.
In turn, `CC(C)[C@@H](C(=O)N[C@@H](Cc1ccc(O)c(C(C)(C)C)c1)CS(C)(=O)=O)N(C)C(=O)[C@@H](N)Cc1ccc(F)cc1` [Example 16, 2-((2-amino-3-(4-fluorophenyl)propionyl)-N-methylamino)-3-methylbutyric acid 2-(3-t-butyl-4-hydroxyphenyl)-1-methanesulfonylmethylethylamide] had a half-maximal inhibitory concentration (IC50) at motilin receptor of 0.41 nM. Also, the Kb in assay [1] is 0.398 nM.
The matching figures for `CC(C)[C@@H](C(=O)N[C@@H](Cc1ccc(O)c(C(C)(C)C)c1)C(=O)Nc1ccccn1)N(C)C(=O)[C@@H](N)Cc1ccc(F)cc1` [Example 8, 2-((2-amino-3-(4-fluorophenyl)propionyl)-N-methylamino)-3-methylbutyric acid 2-(3-tert-butyl-4-hydroxyphenyl)-1-(2-pyridylcarbamoyl)ethylamide]: 0.35 nM and 0.316 nM.
